Drawing on patent publication US20250320224A1 (DOMAIN THERAPEUTICS, priority 2022, published 2025), this text covers IC50 for 18 compounds.

One may read the IC50 as the concentration needed to halve the response being measured.

Structures can show the parent of a compound that is named as a salt.

The target of this test is T1, human PAR-2 (hPAR-2) receptor (Homo sapiens, UniProt P55085).
T1 construct: expressed in HEK-293 cells in an endogenous manner; endogenous in cells; host or cells: HEK-293
T1 sequence (P55085 26-397): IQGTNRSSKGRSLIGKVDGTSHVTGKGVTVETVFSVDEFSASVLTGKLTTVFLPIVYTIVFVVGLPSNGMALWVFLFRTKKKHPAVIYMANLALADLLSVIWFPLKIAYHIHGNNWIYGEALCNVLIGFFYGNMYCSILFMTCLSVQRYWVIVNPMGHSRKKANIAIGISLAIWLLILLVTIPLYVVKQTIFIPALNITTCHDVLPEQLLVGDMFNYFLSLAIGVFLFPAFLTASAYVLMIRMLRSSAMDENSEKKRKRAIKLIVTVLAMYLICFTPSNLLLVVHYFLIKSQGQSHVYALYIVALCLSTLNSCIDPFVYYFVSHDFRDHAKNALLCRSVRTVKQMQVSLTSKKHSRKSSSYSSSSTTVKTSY
Put plainly: In vitro human PAR-2 functional antagonist activity using calcium assays. It is filed as cell-based. The note with it: hPAR-2 endogenously expressed in HEK-293 cells; stimulated by 2-Furoyl-LIGRLO-NH2 peptide; Fluo4AM intracellular calcium, FLIPR Tetra. As to the method: Example 283: In Vitro Human PAR-2 Functional Antagonist Activity Using Calcium Assays
Examples of the present invention were tested successively for their agonist and antagonist activities on human PAR-2 (hPAR-2) receptor expressed in HEK-293 cells in an endogenous manner. Compounds exert agonist activity if, by themselves in absence of the 2-Furoyl-LIGRLO-NH2 peptide (selective hPAR-2 agonist), they activate PAR-2; they exert antagonist activity if they decrease the action of the 2-Furoyl-LIGRLO-NH2 peptide on the receptor. The assay used to determine compound activity is based on calcium measurement.
Cell Culture: HEK-293 cells were maintained in Dulbecco's Modified Eagle's Medium supplemented with 10% Foetal Calf Serum, 1% Penicillin/Streptomycin at 37° C./5% CO2. Flasks for tests (F75) are seeded with 6e+06 cells 24 h before the experiment at 37° C./5% CO2.
Calcium assay: Receptor activity was detected by changes in intracellular calcium measured using the fluorescent Ca^2+ sensitive dye, Fluo4AM (Molecular Probes).
The day of the assay, medium was replaced by assay buffer (HBSS 1× (Gibco 14175-053), Hepes 20 mM, MgSO4-7H2O 1 mM, Na2CO3 3.3 mM, CaCl2—2H2O 2.6 mM, 0.5% bovine serum albumin (BSA), Probenecid 2.5 mM, 0.1 mg/mL Pluronic Acid) and complemented with 1 μM Fluo4AM and cells were incubated during 1:30 h at 37° C.
Cells were then detached, resuspended in assay buffer and seeded in 384 wells, transparent-flat bottom black walled plates (2e+04 cells per well). Plates were incubated at +22° C. for 20 min. Compounds stock solutions were prepared in 100% DMSO and dilutions in test buffer were carried out in polypropylene plates with a digital dispenser (D300e, Tecan). Compounds were added to the cells and intracellular Ca^2+ measurements were collected at the same time on FLIPR Tetra® (Molecular Devices) with specific filters (Exc: 470-495 nm/Em: 515-575 nm).
Agonist and antagonist activities of compounds were consecutively evaluated on the same cell plate. Agonist activity was first measured after 10 min incubation with the compound alone. Then, cells were stimulated by an […] of the 2-Furoyl-LIGRLO-NH2 peptide and fluorescence was recorded for an additional 5 min. EC50 of the 2-Furoyl-LIGRLO-NH2 peptide was the concentration giving 80% of the maximal 2-Furoyl-LIGRLO-NH2 response. Agonist activities are evaluated in comparison to basal signals evoked by assay buffer or maximal 2-Furoyl-LIGRLO-NH2 response. […] Antagonist activities are evaluated in comparison to basal signals evoked by assay buffer or EC50 of 2-Furoyl-LIGRLO-NH2 alone.
A general note: Calcium assays in cells follow changes in intracellular calcium, usually with a dye or a luminescent sensor.
Regarding `CC1(C)CC2(CN(c3ccc(F)c(F)c3)c3ncc(C(=O)N4CCN(c5ccc(CC(=O)O)cn5)CC4(C)C)nc32)C1` [Example 245, 2-(6-(4-(5′-(3,4-difluorophenyl)-3,3-dimethyl-5′,6′-dihydrospiro[cyclobutane-1,7′-pyrrolo[2,3-b]pyrazine]-2′-carbonyl)-3,3-dimethylpiperazin-1-yl)pyridin-3-yl)acetic acid], the IC50 is less than 500 nM.
The same measure for `CC1(C)CN(c2ccc(Cl)c(F)c2)c2ccc(C(=O)N3CCN(c4nc(C(=O)N5CCOCC5)cs4)CC3(C)C)nc21` [Example 82, (1-(4-chloro-3-fluorophenyl)-3,3-dimethyl-2,3-dihydro-1H-pyrrolo[3,2-b]pyridin-5-yl)(2,2-dimethyl-4-(4-(morpholine-4-carbonyl)thiazol-2-yl)piperazin-1-yl)methanone]: less than 500 nM; for `CCCCCCCCCCCCCCCC(=O)N(C)CCN(C)C(=O)CCOCCOCCOCCNC(=O)CCOCCOCCOCCNC(=O)CCCCCCC(=O)N1CCN(C(=O)c2cnc3c(n2)C2(CN3c3ccc(Cl)c(F)c3)CC(C)(C)C2)C(C)(C)C1` [Example 261, N-(37-(4-(5′-(4-chloro-3-fluorophenyl)-3,3-dimethyl-5′,6′-dihydrospiro[cyclobutane-1,7′-pyrrolo[2,3-b]pyrazine]-2′-carbonyl)-3,3-dimethylpiperazin-1-yl)-3-methyl-4,17,30,37-tetraoxo-7,10,13,20,23,26-hexaoxa-3,16,29-triazaheptatriacontyl)-N-methylpalmitamide]: 500 to 10000 nM; for `Cc1cc(N2CCN(C(=O)c3cnc4c(n3)C3(CN4c4cc(F)c(F)c(F)c4)CC(C)(C)C3)C(C)(C)C2)nc(C)c1C(=O)O` [Example 235, 6-(4-(3,3-dimethyl-5′-(3,4,5-trifluorophenyl)-5′,6′-dihydrospiro[cyclobutane-1,7′-pyrrolo[2,3-b]pyrazine]-2′-carbonyl)-3,3-dimethylpiperazin-1-yl)-2,4-dimethylnicotinic acid]: less than 500 nM.
On to `CC1(C)CN(c2ccc(Cl)c(F)c2)c2ccc(C(=O)N3CCN(c4ccc(CC(=O)O)nc4)CC3(C)C)nc21` [Example 117, 2-(5-(4-(1-(4-chloro-3-fluorophenyl)-3,3-dimethyl-2,3-dihydro-1H-pyrrolo[3,2-b]pyridine-5-carbonyl)-3,3-dimethylpiperazin-1-yl)pyridin-2-yl)acetic acid], for which the IC50 is less than 500 nM.
With `CC1(C)CN(c2ccc(Cl)c(F)c2)c2ccc(C(=O)N3CCN(c4nc(C(F)(F)F)c(C(=O)O)s4)CC3(C)C)nc21` [Example 79, 2-(4-(1-(4-chloro-3-fluorophenyl)-3,3-dimethyl-2,3-dihydro-1H-pyrrolo[3,2-b]pyridine-5-carbonyl)-3,3-dimethylpiperazin-1-yl)-4-(trifluoromethyl)thiazole-5-carboxylic acid] the figure was less than 500 nM; with `CC(C)(C)OC(=O)N1CCN(C(=O)c2ccc3c(n2)C(C)(C)CN3c2ccc(Cl)c(F)c2)C(C)(C)C1` [Example 21, tert-butyl 4-(1-(4-chloro-3-fluorophenyl)-3,3-dimethyl-2,3-dihydro-1H-pyrrolo[3,2-b]pyridine-5-carbonyl)-3,3-dimethylpiperazine-1-carboxylate], less than 500 nM.
The same measure for `CC1(C)C(=O)NCCN1C(=O)c1ccc2c(n1)[C@]1(C)CCO[C@@H]1N2c1ccc(Cl)c(F)c1` (racemic) [Example 61, cis-4-(8-(4-chloro-3-fluorophenyl)-3a-methyl-3,3a,8,8a-tetrahydro-2H-furo[3′,2′:4,5]pyrrolo[3,2-b]pyridine-5-carbonyl)-3,3-dimethylpiperazin-2-one]: less than 500 nM.
For `CC1(C)CN(c2ccc(Cl)c(F)c2)c2ccc(C(=O)N3CCN(c4nc(C(N)=O)cs4)CC3(C)C)nc21` [Example 83, 2-(4-(1-(4-chloro-3-fluorophenyl)-3,3-dimethyl-2,3-dihydro-1H-pyrrolo[3,2-b]pyridine-5-carbonyl)-3,3-dimethylpiperazin-1-yl)thiazole-4-carboxamide], the 50% inhibitory concentration (IC50) was less than 500 nM.
Turning to `CO[C@H]1CN(C(=O)c2ccc3c(n2)C(C)(C)CN3c2ccc(Cl)c(F)c2)CC[C@@H]1CC(=O)O` [Example 94, 2-((3R,4R)-1-(1-(4-chloro-3-fluorophenyl)-3,3-dimethyl-2,3-dihydro-1H-pyrrolo[3,2-b]pyridine-5-carbonyl)-3-methoxypiperidin-4-yl)acetic acid], the IC50 lay within 500 to 10000 nM.
On to `Cc1cc(N2CCN(C(=O)c3ccc4c(n3)C3(CCOC3)CN4c3ccc(Cl)c(F)c3)C(C)(C)C2)nc(C)c1C(=O)O` (stereo not drawn) [Example 60, 6-(4-(1′-(4-chloro-3-fluorophenyl)-1′,2′,4,5-tetrahydro-2H-spiro[furan-3,3′-pyrrolo[3,2-b]pyridine]-5′-carbonyl)-3,3-dimethylpiperazin-1-yl)-2,4-dimethylnicotinic acid hydrochloride], for which the IC50 is less than 500 nM.
With `Cc1cc(N2CCN(C(=O)c3ccc4c(n3)C3(CCCC3)CN4c3ccc(F)c(F)c3)C(C)(C)C2)nc(C)c1C(=O)O` [Example 113, 6-(4-(1′-(3,4-difluorophenyl)-1′,2′-dihydrospiro[cyclopentane-1,3′-pyrrolo[3,2-b]pyridine]-5′-carbonyl)-3,3-dimethylpiperazin-1-yl)-2,4-dimethylnicotinic acid] the figure was less than 500 nM; with `Cc1cc(N2CCN(C(=O)c3cnc4c(n3)C3(CN4c4ccc(F)c(F)c4)CC(C)(C)C3)C(C)(C)C2)nc(C)c1C(=O)O` [Example 233, 6-(4-(5′-(3,4-difluorophenyl)-3,3-dimethyl-5′,6′-dihydrospiro[cyclobutane-1,7′-pyrrolo[2,3-b]pyrazine]-2′-carbonyl)-3,3-dimethylpiperazin-1-yl)-2,4-dimethylnicotinic acid], less than 500 nM.
With `Cc1cc(N2CCN(C(=O)c3cnc4c(n3)C(C)(C)CN4c3ccc(Cl)c(F)c3)C(C)(C)C2)nc(C)c1C(=O)O` [Example 100, 6-(4-(5-(4-chloro-3-fluorophenyl)-7,7-dimethyl-6,7-dihydro-5H-pyrrolo[2,3-b]pyrazine-2-carbonyl)-3,3-dimethylpiperazin-1-yl)-2,4-dimethylnicotinic acid] the figure was less than 500 nM; with `Cc1cc(N2CCN(C(=O)c3ccc4c(n3)C(C)(C)CN4c3ccc(C4CC4)cc3)C(C)(C)C2)nc(C)c1C(=O)O` [Example 279, 6-(4-(1-(4-cyclopropylphenyl)-3,3-dimethyl-2,3-dihydro-1H-pyrrolo[3,2-b]pyridine-5-carbonyl)-3,3-dimethylpiperazin-1-yl)-2,4-dimethylnicotinic acid], less than 500 nM; with `CC1(C)CN(c2ccc(Cl)c(Cl)c2)c2ncc(C(=O)N3CCN(c4ccc(CC(=O)O)cn4)CC3(C)C)nc21` [Example 221, 2-(6-(4-(5-(3,4-dichlorophenyl)-7,7-dimethyl-6,7-dihydro-5H-pyrrolo[2,3-b]pyrazine-2-carbonyl)-3,3-dimethylpiperazin-1-yl)pyridin-3-yl)acetic acid], less than 500 nM.
The same measure for `CC1(C)CN(c2cc(F)c(F)c(F)c2)c2ncc(C(=O)N3CCN(c4ccc(CC(=O)O)cn4)CC3(C)C)nc21` [Example 217, 2-(6-(4-(7,7-dimethyl-5-(3,4,5-trifluorophenyl)-6,7-dihydro-5H-pyrrolo[2,3-b]pyrazine-2-carbonyl)-3,3-dimethylpiperazin-1-yl)pyridin-3-yl)acetic acid]: less than 500 nM.
With `CC1(C)CN(c2ccc(Cl)c(F)c2)c2ccc(C(=O)N3CCOCC3(C)C)nc21` [Example 20, (1-(4-chloro-3-fluorophenyl)-3,3-dimethyl-2,3-dihydro-1H-pyrrolo[3,2-b]pyridin-5-yl)(3,3-dimethylmorpholino)methanone], the IC50 is less than 500 nM.
